Source: ChEMBL document CHEMBL1123009, “Synthesis and antimicrobial evaluation of bicyclomycin analogues” (1985)
In brackets after ≈: the same amount, converted by molar mass. Blank lines part the entries; values can stand above or below the compound they belong to. Activity calls are given as the source filed them. The rule behind the calls is not given here.

Key:
Staphylococcus aureus [1] = assay: Minimum inhibitory concentration against gram-negative and gram-positive bacterial strains; Not active.; format: functional, organism-based
Staphylococcus aureus [2] = assay: Compound was evaluated for its antibiotic activity against gram-negative and gram-positive bacterial strains; NA = not active; format: functional, organism-based
[3] = system: Acinetobacter calcoaceticus; assay: Minimum inhibitory concentration against Acinetobacter calcoaceticus PCl3; format: functional
Priestia megaterium = assay: Minimum inhibitory concentration against Bacillus megaterium 164; format: functional
Bacillus subtilis = assay: Minimum inhibitory concentration against Bacillus subtilis 558; format: functional
Bacillus [4] = assay: Minimum inhibitory concentration against Bacillus sp. E; format: functional
Candida albicans = assay: Minimum inhibitory concentration against yeast Candida albicans 155; format: functional
Escherichia coli = assay: Minimum inhibitory concentration against Escherichia coli 94; format: functional
Klebsiella pneumoniae = assay: Minimum inhibitory concentration against Klebsiella pneumoniae 369; format: functional
Micrococcus luteus = assay: Minimum inhibitory concentration against Micrococcus luteus PCI; format: functional
Mycolicibacterium phlei = assay: Minimum inhibitory concentration against Mycobacterium phlei 78; format: functional
Penicillium digitatum = assay: Minimum inhibitory concentration against Penicillium digitatum 0184; format: functional
Paecilomyces variotii = assay: Minimum inhibitory concentration against Paecilomyces varioti M16; format: functional
Pseudomonas aeruginosa = assay: Minimum inhibitory concentration against Pseudomonas aeruginosa 56; format: functional
Proteus vulgaris = assay: Minimum inhibitory concentration against Proteus vulgaris 101N; format: functional
Serratia marcescens = assay: Minimum inhibitory concentration against Serratia marcescens SM; format: functional
Saccharomyces cerevisiae = assay: Minimum inhibitory concentration against Saccharomyces cerevisiae 90; format: functional
Serratia = assay: Minimum inhibitory concentration against Serratia sp.101; format: functional
Staphylococcus aureus [5] = assay: Minimum inhibitory concentration against Staphylococcus aureus 82; format: functional
Enterococcus faecium = assay: Minimum inhibitory concentration against Streptococcus faecium ATCC 8043; format: functional
Streptomyces sp. = assay: Minimum inhibitory concentration against Gram positive filament Streptomyces cellulose 097; format: functional
Bacillus [6] = assay: Minimum inhibitory concentration against Bacillus sp. TA; format: functional

Structure (SMILES): CSC12OCCC[C@@](C)(C(=O)N1C)N(C)C2=O
MIC (Staphylococcus aureus [2]): inactive

Structure (SMILES): C=C1CCOC2NC(=O)[C@@]1(O)NC2=O
MIC (Staphylococcus aureus [2]): inactive

Structure (SMILES): C=CC1COC2NC(=O)[C@H]1NC2=O (some centres not stated)
MIC (Staphylococcus aureus [2]): inactive

Structure (SMILES): CN1C(=O)[C@@H]2CCCOC1C(=O)N2C
MIC (Staphylococcus aureus [1]): inactive

Structure (SMILES): CN1C(=O)[C@]2(C(=O)c3ccccc3)CCOC1C(=O)N2C
MIC (Staphylococcus aureus [2]): inactive

Structure (SMILES): C=C1CCOC2NC(=O)[C@H]1NC2=O
MIC (Staphylococcus aureus [1]): inactive

Structure (SMILES): CN1C(=O)[C@]2(C(O)c3ccccc3)CCCOC1C(=O)N2C (some centres not stated)
MIC (Staphylococcus aureus [1]): inactive

Structure (SMILES): CS[C@@]12CCCOC(C(=O)N1C)N(C)C2=O
MIC (Staphylococcus aureus [1]): inactive

Structure (SMILES): CN1C(=O)[C@@H]2CCOC1C(=O)N2C
MIC (Staphylococcus aureus [2]): inactive

Structure (SMILES): C[C@](O)(CO)[C@H](O)C12NC(=O)[C@](O)(CCCO1)NC2=O
MIC (Staphylococcus aureus [1]): inactive

Structure (SMILES): O=C1N[C@H]2CCCOC1NC2=O
MIC (Staphylococcus aureus [1]): inactive

Structure (SMILES): COc1ccc(N2C(=O)[C@@H]3CCCOC2C(=O)N3c2ccc(OC)cc2)cc1
MIC (Staphylococcus aureus [1]): inactive

Structure (SMILES): C=C1CCO[C@]2([C@@H](O)[C@@](C)(O)CO)NC(=O)[C@@]1(O)NC2=O [BICOZAMYCIN]
MIC [3]: 1000 µg/mL (≈ 3310 µM) | MIC (Priestia megaterium): > 1000 µg/mL | MIC (Bacillus subtilis): > 1000 µg/mL | MIC (Bacillus [4]): > 1000 µg/mL | MIC (Candida albicans): > 1000 µg/mL | MIC (Escherichia coli): 250 µg/mL (≈ 827 µM) | MIC (Klebsiella pneumoniae): 250 µg/mL (≈ 827 µM) | MIC (Micrococcus luteus): > 1000 µg/mL | MIC (Mycolicibacterium phlei): 1000 µg/mL (≈ 3310 µM) | MIC (Penicillium digitatum): > 1000 µg/mL | MIC (Paecilomyces variotii): > 1000 µg/mL | MIC (Pseudomonas aeruginosa): > 1000 µg/mL | MIC (Proteus vulgaris): > 1000 µg/mL | MIC (Serratia marcescens): > 1000 µg/mL | MIC (Saccharomyces cerevisiae): > 1000 µg/mL | MIC (Serratia): > 1000 µg/mL | MIC (Staphylococcus aureus [5]): > 1000 µg/mL | MIC (Enterococcus faecium): > 1000 µg/mL | MIC (Streptomyces sp.): 500 µg/mL (≈ 1650 µM) | MIC (Bacillus [6]): > 1000 µg/mL

Structure (SMILES): O=C1N[C@@]2(O)CCCOC1NC2=O
MIC (Staphylococcus aureus [1]): inactive

Structure (SMILES): C[C@](O)(CO)[C@H](O)C12NC(=O)[C@H](CCCO1)NC2=O
MIC (Staphylococcus aureus [1]): inactive

Structure (SMILES): C=C1CCOC2([C@@H](O)[C@@](C)(O)CO)NC(=O)[C@@]1(O)NC2=O
MIC (Staphylococcus aureus [1]): inactive

Further lines, results first:

MIC (Staphylococcus aureus [1]): inactive
Structure (SMILES): O=C1[C@@H]2[C@H](CO)COC(C(=O)N2Cc2ccccc2)N1Cc1ccccc1

MIC (Staphylococcus aureus [1]): inactive
Structure (SMILES): COc1ccc(CN2C(=O)[C@@H]3CCCOC2C(=O)N3Cc2ccc(OC)cc2)cc1

MIC [3]: > 1000 µg/mL | MIC (Priestia megaterium): 500 µg/mL (≈ 1320 µM) | MIC (Bacillus subtilis): 250 µg/mL (≈ 661 µM) | MIC (Bacillus [4]): > 1000 µg/mL | MIC (Candida albicans): > 1000 µg/mL | MIC (Escherichia coli): > 1000 µg/mL | MIC (Klebsiella pneumoniae): > 1000 µg/mL | MIC (Micrococcus luteus): 500 µg/mL (≈ 1320 µM) | MIC (Mycolicibacterium phlei): > 1000 µg/mL | MIC (Penicillium digitatum): > 1000 µg/mL | MIC (Paecilomyces variotii): > 1000 µg/mL | MIC (Pseudomonas aeruginosa): > 1000 µg/mL | MIC (Proteus vulgaris): > 1000 µg/mL | MIC (Serratia marcescens): > 1000 µg/mL | MIC (Saccharomyces cerevisiae): > 1000 µg/mL | MIC (Serratia): > 1000 µg/mL | MIC (Staphylococcus aureus [5]): > 1000 µg/mL | MIC (Enterococcus faecium): > 1000 µg/mL | MIC (Streptomyces sp.): 500 µg/mL (≈ 1320 µM) | MIC (Bacillus [6]): 250 µg/mL (≈ 661 µM)
Structure (SMILES): C=C1CCOC2C(=O)N(Cc3ccccc3)[C@]1(O)C(=O)N2Cc1ccccc1

MIC (Staphylococcus aureus [1]): inactive
Structure (SMILES): C=CC1COC2C(=O)N(Cc3ccccc3)[C@@H]1C(=O)N2Cc1ccccc1 (some centres not stated)

MIC (Staphylococcus aureus [1]): inactive
Structure (SMILES): C=C1COC2C(=O)N(Cc3ccccc3)[C@@H]1C(=O)N2Cc1ccccc1

MIC (Staphylococcus aureus [1]): inactive
Structure (SMILES): C=C1CCOC2C(=O)N(Cc3ccccc3)[C@@H]1C(=O)N2Cc1ccccc1

MIC (Staphylococcus aureus [1]): inactive
Structure (SMILES): O=C1C2OCCC[C@@](O)(C(=O)N2Cc2ccccc2)N1Cc1ccccc1

MIC (Staphylococcus aureus [1]): inactive
Structure (SMILES): O=C1[C@@H]2CCCOC(C(=O)N2Cc2ccccc2)N1Cc1ccccc1
